Results published in publication PMC4604124, “In Vitro Characterization of the Pharmacological Properties of the Anti-Cancer Chelator, Bp4eT, and Its Phase I Metabolites” (PLoS ONE, 2015).

Tested on: MCF-7 cells
Test: Epifluorescence microscopy, triple staining MDC / annexin V-FITC / propidium iodide
Assay type: cell-based, human
Settings: Bp4eT 10 or 100 nM 72 h, rapamycin 1 nM 30 min
Protocol: Markers used to assess autophagy/apoptosis/necrosis in MCF-7 cells and changes of lysosomal and mitochondrial morphology were observed using an Eclipse Ti inverted epifluorescence microscope (Nikon, Tokyo, Japan), that was equipped with a cooled digital camera Zyla 5.5 sCMOS (Andor Technology, Belfast, UK), and NIS-Elements C 4.1 software (Laboratory Imaging, Prague, Czech Republic). The MCF-7 cells were seeded in 6-well plates with cover slips on the bottom at a density of 150,000 cells/well and incubated as described above in the presence or absence of 10 or 100 nM Bp4eT.
To assess the mechanism of cellular death after incubation with Bp4eT, triple staining with monodansyl cadaverine (MDC; 50 μM; λex = 390 nm; λem = 455 nm; Sigma-Aldrich), annexin V-FITC (5 μL/mL; λex = 495 nm; λem = 519 nm; Invitrogen, Carlsbad, CA, USA), and propidium iodide (5 μg/mL; λex = 560 nm; λem = 630 nm) was used. MDC is a marker of autophagosomes and lysosomes and results in blue fluorescence. As a positive control for autophagy, MCF-7 cells were incubated with 1 nM rapamycin (Sigma-Aldrich) for 30 min/37°C, which is an established inducer of autophagy. Annexin V has high affinity to phosphatidylserine, which is translocated to the surface of both early- and late-stage apoptotic cells. […]

With `CO[C@H]1C[C@@H]2CC[C@@H](C)[C@@](O)(O2)C(=O)C(=O)N2CCCC[C@H]2C(=O)O[C@H]([C@H](C)C[C@@H]2CC[C@@H](O)[C@H](OC)C2)CC(=O)[C@H](C)/C=C(\C)[C@@H](O)[C@@H](OC)C(=O)[C@H](C)C[C@H](C)/C=C/C=C/C=C/1C` [rapamycin, reference compound] the “Staining for autophagy/apoptosis/necrosis (MDC, annexin V-FITC, propidium iodide)” value was “enlarged cells with ample granular, cytoplasmic MDC staining”.
